Laboratory results: patent US11214803B2, “Modulators of YAP1 expression” (Ionis Pharmaceuticals, Inc., priority 2019, dated 2022)
Strand notation (5' to 3'): a small letter for the sugar, then the base; units joined by * are phosphorothioate-linked, units joined directly phosphodiester-linked; [ ] holds rarer units or linkages, { } end groups; capitals alone tell only the bases. k = constrained ethyl (cEt); [5mC] = 5-methylcytosine; d = 2'-deoxy (DNA)

test system: Yap1 mRNA; assay: Antisense inhibition of human Yap1 in A-431 cells by cEt gapmers, single dose (Example 3, RTS36584); assay type: cell-based; settings: Table 8; A-431 cells, 5,000 cells per well, free uptake, 2,000 nM, approximately 48 hours; RTS36584; normalized to RIBOGREEN; Yap1 mRNA relative to untreated control cells
Procedure, shortened: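 Human epidermoid A-431 cells take up gapmer (2,000 nM, free uptake, ~48 h); Yap1 transcript is then assayed by qRT-PCR with RiboGreen normalization and reported relative to untreated cells. Gapmers carry cEt-modified wings, phosphorothioate linkages and 5-methylcytosine throughout.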

Substance | YAP1 (% UTC)
958421 (antisense k[5mC]*kT*k[5mC]*d[5mC]*dG*dT*dG*dG*dT*dG*dA*dT*d[5mC]*k[5mC]*k[5mC]*kA) [Compound 958421] | 13 % UTC
958354 (antisense kG*kT*k[5mC]*dG*dG*dT*d[5mC]*dT*d[5mC]*d[5mC]*dG*dA*dG*kT*k[5mC]*k[5mC]) [Compound 958354] | 31 % UTC
958389 (antisense k[5mC]*kG*kG*dA*dG*dG*d[5mC]*dG*d[5mC]*dG*d[5mC]*dG*d[5mC]*kA*kT*kT) [Compound 958389] | 126 % UTC
958356 (antisense kT*kT*kG*dA*dA*dG*dA*dA*dG*dG*dA*dG*dT*k[5mC]*kG*kG) [Compound 958356] | 9 % UTC
958412 (antisense kA*k[5mC]*k[5mC]*dT*dT*dT*dA*d[5mC]*d[5mC]*dA*dA*dA*dA*k[5mC]*kG*kA) [Compound 958412] | 49 % UTC
958364 (antisense k[5mC]*kA*kT*dG*dT*dT*dG*dT*dT*dG*dT*d[5mC]*dT*kG*kA*kT) [Compound 958364] | 19 % UTC
958380 (antisense k[5mC]*kG*k[5mC]*dG*d[5mC]*d[5mC]*d[5mC]*dG*d[5mC]*d[5mC]*d[5mC]*dG*d[5mC]*kA*k[5mC]*k[5mC]) [Compound 958380] | 106 % UTC

same assay, conditions: Table 9; A-431 cells, 5,000 cells per well, free uptake, 2,000 nM, approximately 48 hours; RTS36584; normalized to RIBOGREEN; Yap1 mRNA relative to untreated control cells

Substance | YAP1 (% UTC)
958476 (antisense kT*kT*k[5mC]*d[5mC]*dG*dG*dT*dG*d[5mC]*dA*dT*dG*dT*kG*kT*k[5mC]) [Compound 958476] | 2 % UTC
958691 (antisense kT*k[5mC]*kA*dG*dT*dT*dG*dG*d[5mC]*dA*dA*d[5mC]*dA*kG*kT*k[5mC]) [Compound 958691] | 20 % UTC
958451 (antisense k[5mC]*kA*k[5mC]*dG*dA*dT*d[5mC]*dT*dG*dA*dT*dG*d[5mC]*k[5mC]*k[5mC]*kG) [Compound 958451] | 10 % UTC
958716 (antisense kA*kT*kG*dG*dA*d[5mC]*dT*dG*dT*dA*dT*dG*d[5mC]*kA*kG*k[5mC]) [Compound 958716] | 84 % UTC

same assay, conditions: Table 10; A-431 cells, 5,000 cells per well, free uptake, 2,000 nM oligonucleotide, approx. 48 hours; primer probe set RTS36584; Yap1 mRNA normalized to RIBOGREEN, percent of untreated control

Substance | YAP1 (% UTC)
958742 (antisense kA*kG*k[5mC]*dA*dA*dT*dA*dT*dG*dG*dT*dA*dT*kT*kA*kG) [Compound 958742] | 4 % UTC
958687 (antisense kA*k[5mC]*kA*d[5mC]*dT*dA*dT*dG*dT*dG*dT*dT*d[5mC]*kT*kG*k[5mC]) [Compound 958687] | 57 % UTC
958807 (kT*k[5mC]*kA*dT*dT*dG*dT*dA*dG*dT*d[5mC]*dT*dG*kT*k[5mC]*kT; antisense) [Compound 958807] | 3 % UTC

same assay, conditions: Table 11; A-431 cells, 5,000 cells per well, free uptake, 2,000 nM oligonucleotide, approx. 48 hours; primer probe set RTS36584; Yap1 mRNA normalized to RIBOGREEN, percent of untreated control

Substance | YAP1 (% UTC)
958473 (antisense kG*kT*k[5mC]*dT*d[5mC]*d[5mC]*dT*dT*dA*dG*dA*dT*d[5mC]*k[5mC]*kT*kT) [Compound 958473] | 5 % UTC
958578 (k[5mC]*kT*kT*dA*dA*dT*d[5mC]*dT*dG*dT*dG*dG*d[5mC]*kT*kA*k[5mC]; antisense) [Compound 958578] | 4 % UTC

same assay, conditions: Table 12; A-431 cells, 5,000 cells per well, free uptake, 2,000 nM modified oligonucleotide, approx. 48 hours; RTS36584; normalized to RIBOGREEN; Yap1 mRNA relative to untreated control cells

Substance | YAP1 (% UTC)
958819 (kT*kG*k[5mC]*dT*dT*d[5mC]*dA*dA*d[5mC]*dA*dT*dT*dG*kT*kT*k[5mC]; antisense) [Compound 958819] | 9 % UTC
958659 (kG*kT*kT*dG*dT*dA*dT*dT*dA*d[5mC]*dT*d[5mC]*dT*k[5mC]*k[5mC]*kA; antisense) [Compound 958659] | 2 % UTC
958599 (kT*kT*k[5mC]*dA*dA*dG*dA*dA*dT*dA*d[5mC]*d[5mC]*d[5mC]*kA*kG*kT; antisense) [Compound 958599] | 5 % UTC
958729 (antisense kG*kT*k[5mC]*dA*dG*dT*dT*dA*dT*d[5mC]*d[5mC]*dT*dA*kT*k[5mC]*kT) [Compound 958729] | 4 % UTC
958754 (antisense k[5mC]*k[5mC]*kT*dT*dA*dG*dG*dA*dA*dG*dG*d[5mC]*dT*k[5mC]*k[5mC]*k[5mC]) [Compound 958754] | 31 % UTC
958624 (antisense kG*kG*kG*dA*dT*dT*dG*dA*dT*dA*dT*dT*d[5mC]*k[5mC]*kG*k[5mC]) [Compound 958624] | 74 % UTC

same assay, conditions: Table 13; A-431 cells, 5,000 cells per well, free uptake, 2,000 nM modified oligonucleotide, approx. 48 hours; RTS36584; normalized to RIBOGREEN; Yap1 mRNA relative to untreated control cells

Substance | YAP1 (% UTC)
958675 (kT*k[5mC]*k[5mC]*d[5mC]*dT*dA*dT*d[5mC]*dA*dG*d[5mC]*dT*dG*kG*kG*k[5mC]; antisense) [Compound 958675] | 112 % UTC
958465 (antisense kG*kG*k[5mC]*dT*dT*d[5mC]*dA*dA*dG*dG*dT*dA*dG*kT*k[5mC]*kT) [Compound 958465] | 84 % UTC
958520 (k[5mC]*kT*kA*d[5mC]*d[5mC]*dG*dT*dA*dT*dG*d[5mC]*d[5mC]*d[5mC]*kA*kG*kA; antisense) [Compound 958520] | 27 % UTC

same assay, conditions: Table 26; Yap1 mRNA by 3-10-3 cEt gapmers targeting SEQ ID NO.: 1, and 2; percent of untreated control

Substance | YAP1 (% UTC)
1076140 (kA*k[5mC]*kG*dA*dA*dA*dA*dA*dA*dG*d[5mC]*d[5mC]*dA*kA*k[5mC]*kA; antisense) [compound 1076140] | 28 % UTC
1075308 (antisense kA*kA*kT*dT*dA*dA*dA*d[5mC]*dG*dA*dA*dA*d[5mC]*kA*k[5mC]*kG) [compound 1075308] | 97 % UTC

same assay, conditions: Table 27; Yap1 mRNA by 3-10-3 cEt gapmers targeting SEQ ID NO.: 1, and 2; percent of untreated control

Substance | YAP1 (% UTC)
1076301 (kG*kT*kA*dT*dA*dA*dG*dA*d[5mC]*d[5mC]*dT*dT*dG*kG*kG*kA; antisense) [compound 1076301] | 34 % UTC

same assay, conditions: Table 28; Yap1 mRNA as percent of untreated control; 3-10-3 cEt gapmers targeting SEQ ID NO.: 1, and 2

Substance | YAP1 (% UTC)
1075534 (kA*k[5mC]*k[5mC]*d[5mC]*dA*dA*dG*dG*dA*d[5mC]*dA*dG*d[5mC]*kA*k[5mC]*kA; antisense) [compound 1075534] | 53 % UTC
1074702 (antisense kG*kG*kT*dG*dT*dA*dA*dG*dA*d[5mC]*dA*dA*dG*kT*k[5mC]*kT) [compound 1074702] | 16 % UTC
1074542 (kA*kG*kG*d[5mC]*dA*d[5mC]*dT*dA*dT*d[5mC]*d[5mC]*dA*d[5mC]*kA*kG*kT; antisense) [compound 1074542] | 21 % UTC
1075086 (antisense kA*kG*kT*dT*dA*dT*dA*dG*dA*d[5mC]*dT*dT*dT*kG*kT*kA) [compound 1075086] | 25 % UTC

same assay, conditions: Table 29; Yap1 mRNA as percent of untreated control; 3-10-3 cEt gapmers targeting SEQ ID NO.: 1, and 2

Substance | YAP1 (% UTC)
1074767 (kT*kT*kA*dT*d[5mC]*d[5mC]*d[5mC]*dA*dA*dT*dG*d[5mC]*dT*kA*k[5mC]*k[5mC]; antisense) [compound 1074767] | 12 % UTC

same assay, conditions: Table 34; Yap1 mRNA as percent of untreated control; 3-10-3 cEt gapmers targeting SEQ ID NO: 1 and 2; single dose

Substance | YAP1 (% UTC)
1074356 (antisense kG*kA*kG*dG*dG*dA*d[5mC]*dA*d[5mC]*dT*dG*dT*dA*kG*k[5mC]*kT) [compound 1074356] | 43 % UTC
1074708 (antisense k[5mC]*kT*kT*dT*dA*dA*dT*dG*dG*d[5mC]*dA*dG*d[5mC]*kA*k[5mC]*kG) [compound 1074708] | 55 % UTC
1075796 (kA*kG*kT*dA*dA*dT*dT*dA*dT*dA*dT*dA*d[5mC]*k[5mC]*k[5mC]*kA; antisense) [compound 1075796] | 64 % UTC
1074740 (kG*kG*kA*d[5mC]*dT*d[5mC]*dT*dT*dA*dG*dG*dT*d[5mC]*kT*k[5mC]*k[5mC]; antisense) [compound 1074740] | 75 % UTC
1075188 (kA*kG*kT*d[5mC]*dA*dA*d[5mC]*d[5mC]*dT*dG*dT*dA*dA*kT*kT*kA; antisense) [compound 1075188] | 14 % UTC
1074260 (antisense kG*kT*kT*d[5mC]*dA*dT*d[5mC]*dA*dT*dA*dT*dT*d[5mC]*kT*kG*k[5mC]) [compound 1074260] | 48 % UTC
1074516 (kT*kT*kA*dA*d[5mC]*dT*dG*dG*dA*dA*dA*dG*d[5mC]*kA*kG*kG; antisense) [compound 1074516] | 22 % UTC

same assay, conditions: Table 35; Yap1 mRNA as percent of untreated control; 3-10-3 cEt gapmers targeting SEQ ID NO: 1 and 2; single dose

Substance | YAP1 (% UTC)
1076149 (kT*kT*kA*dT*dT*dA*dA*d[5mC]*dT*d[5mC]*dA*d[5mC]*dG*kA*kA*kG; antisense) [compound 1076149] | 24 % UTC
1074709 (antisense kT*k[5mC]*kT*dA*dG*dA*dA*d[5mC]*dA*dG*d[5mC]*dT*dG*k[5mC]*k[5mC]*kT) [compound 1074709] | 71 % UTC
1074197 (antisense kT*kG*k[5mC]*d[5mC]*d[5mC]*dG*dG*dG*dT*d[5mC]*d[5mC]*dG*dG*kA*k[5mC]*kG) [compound 1074197] | 91 % UTC
